Assays:
[1] = test system: Beckmann Access (commercial cortisol immunoassay); test: Synthetic glucocorticoid cross reactivity in Beckman Access cortisol immunoassay; type: binding; set-up: Access Cortisol Value: unit: ng/mL; conditions: for Access Cortisol Value: Method 1: all synthetics present at 2000 ng/mL, apparent cortisol read by Beckmann Access; for Percent cross reactivity, Access: determined by 2000 ng/mL sample; for % Reactivity (Method 2): serial dilutions 1:2, 1:4, 1:8 and 1:16, linear analysis evaluation; for % Reactivity (Method 1): synthetic present at 2000 ng/mL, (cortisol value)/(concentration of analyte) x 100%
Protocol: Initial synthetic glucocorticoid antibody cross reactivity data included LC-MS/MS analysis of patient samples was followed by analysis via the Beckman immunoassay system, and relative cross reactivities were calculated for each of the synthetic glucocorticoids of interest. Cross reactivities were also calculated based on a linearity study of each of the major cross reactive synthetic glucocorticoids to ensure that the values obtained for each were viable. (Table 1).
(§1) LC-MS/MS analysis of patient samples was followed by analysis using the Beckman Access (commercial assay), and relative cross reactivities were calculated for each of the synthetic glucocorticoids of interest. Synthetic positive patient samples were then mimicked in stripped serum for cortisol, cortisone and exogenous synthetic glucocorticoids. […] The linear relationship for these systems was examined and illustrated.

[2] = test system: Antibody 7 (clone XM210 from Abcam); test: Cross reactivity on anti-cortisol antibody microarray, antibody 7; type: binding; conditions: for Percent cross reactivity, antibody 7: determined by 2000 ng/mL sample; for % cross reactivity, antibody 7: from slopes of ([apparent cortisol] vs [cross reactant])
Text: (§2) The independent variables, these are x1 and x2 in the model are the various concentrations levels, where x1 is the concentration level of cortisol and x2 is the concentration level of the cross-reactant (in this case either 6AMP or prednisolone). The dependent variable, i.e. the variable that we are trying to predict, is the “apparent” cortisol concentration, which is estimated from the concentration-signal 4 parameter logistic regression model. […] These equations are given by,
(§3) In terms of the model β1 is interpreted as the amount that the “apparent” cortisol is increase per ng/ml increase of cortisol and similarly β2 is interpreted as the amount that the “apparent” cortisol is increased per ng/ml increase of cross-reactant. Finally to estimate the percent cross action it is given by:
(§4) The antibody concentrations were 125 ug/mL in buffered solutions comprising phosphate-buffered saline (PBS) and 1× Whatman Protein Arraying Buffer. The antibody solutions were applied to the slide surface using a Scienion sciflexarryer S5 piezo printer. The average spot sizes were 150 um. The antibodies within a sub array were printed in replicates of five spots, and each slide contained twelve sub arrays arranged in two columns of six. The relative spacing of the sub arrays was nine millimeters, equivalent to the spacing of a 96-well micro titer plate.
The micro-array slides were assembled with a superstructure that creates individual wells that surround the sub array (Slide Incubation Chambers, Whatman). The slides were blocked for one hour with micro array blocking buffer (VWR) and then washed with TRIS-buffered saline with Tween-20 (TBST). Cortisol-containing samples or calibrators were diluted 1 to 20 into a buffered solution that contained the following: TBST, 0.1% SDS, 3.3 nM cortisol 3-CMO Alexa Fluor 555, and 3.3 nM cortisol 21-HS Alexa Fluor 647. One-hundred micro liters of the assay mixture was applied to an individual well on the micro-array slide, and the assay was allowed to proceed for one hour at room temperature in the dark with gentle shaking on a micro-titer plate shaker. The assay mixture was removed, and the slides were washed with TBST, water, and then dried by spinning in a centrifuge. The intensities of fluorescence associated with each spot was quantified using a micro-array reader such as an Axon 4000B or 4200AL. The spot intensities for the calibrators were used to generate a standard curve by fitting the data to a four-parameter logistic model. The concentrations of the cortisol-containing patient samples or synthetic samples were interpolated using the logistic-fit equation. […]

[3] = test system: Antibody 9 (clone F4P1A3 from EMD Biosciences); test: Cross reactivity on anti-cortisol antibody microarray, antibody 9; type: binding; conditions: for Percent cross reactivity, antibody 9: determined by 2000 ng/mL sample; for % cross reactivity, antibody 9: from slopes of ([apparent cortisol] vs [cross reactant])
Text: as §2, §3, §4
(§5) The micro-array slides were assembled with a superstructure that creates individual wells that surround the sub array (Slide Incubation Chambers, Whatman). The slides were blocked for one hour with micro array blocking buffer (VWR) and then washed with TRIS-buffered saline with Tween-20 (TBST). Cortisol-containing samples or calibrators were diluted 1 to 20 into a buffered solution that contained the following: TBST, 0.1% SDS, 3.3 nM cortisol 3-CMO Alexa Fluor 555, and 3.3 nM cortisol 21-HS Alexa Fluor 647. One-hundred micro liters of the assay mixture was applied to an individual well on the micro-array slide, and the assay was allowed to proceed for one hour at room temperature in the dark with gentle shaking on a micro-titer plate shaker. The assay mixture was removed, and the slides were washed with TBST, water, and then dried by spinning in a centrifuge. The intensities of fluorescence associated with each spot was quantified using a micro-array reader such as an Axon 4000B or 4200AL. The spot intensities for the calibrators were used to generate a standard curve by fitting the data to a four-parameter logistic model. The concentrations of the cortisol-containing patient samples or synthetic samples were interpolated using the logistic-fit equation.
(§6) Subsequently, several cortisol antibodies were synthesized and relative cross reactivities were determined for the synthetic glucocorticoids obtained via the same described the Beckmann system (Tables 4 & 5). Cortisol antibodies should have specificity to distinguish the differences in the A ring of the steroid molecules shown below.

[4] = test system: Antibody 10 (clone A29220314P from BiosPacific); test: Cross reactivity on anti-cortisol antibody microarray, antibody 10; type: binding; conditions: for Percent cross reactivity, antibody 10: determined by 2000 ng/mL sample; for % cross reactivity, antibody 10: from slopes of ([apparent cortisol] vs [cross reactant])
Text: as §2, §3, §4, §5, §6

antibody 13 = test: Cross reactivity on anti-cortisol antibody microarray, antibody 13; type: binding; conditions: for Percent cross reactivity, antibody 13: determined by 2000 ng/mL sample; for % cross reactivity, antibody 13: from slopes of ([apparent cortisol] vs [cross reactant])
Text: (§7) This model is used to estimate the cross-reaction percentage. The independent variables, these are x1 and x2 in the model are the various concentrations levels, where x1 is the concentration level of cortisol and x2 is the concentration level of the cross-reactant (in this case either 6AMP or prednisolone). The dependent variable, i.e. the variable that we are trying to predict, is the “apparent” cortisol concentration, which is estimated from the concentration-signal 4 parameter logistic regression model. We fit this model using standard multiple linear regression methods to estimate β1 and β2. These equations are given by,
as §3, §4, §5, §6

antibody 17 = test: Cross reactivity on anti-cortisol antibody microarray, antibody 17; type: binding; conditions: for Percent cross reactivity, antibody 17: determined by 2000 ng/mL sample; for % cross reactivity, antibody 17: from slopes of ([apparent cortisol] vs [cross reactant])
Text: as §7, §3, §4, §5, §6

[5] = LC-MS/MS analysis of synthetic-positive patient samples; type: in vivo; conditions: population of positive patient samples
Text: In the present method mass spectrometric methods were used to determine actual analyte levels in clinical patient populations. Some of these samples were subjected to the current immunoassay systems and the interference relationship was established. After identifying the most commonly present exogenous drugs present in the samples, this information was used toward establishing an assay, free from the limitations of the mass spec. deconvolution, that gives an accurate depiction of the analyte, such as cortisol, levels in a patient sample.
A population was drawn of positive synthetic patient samples once cross reactivities were determined for individual steroids (Table 2).
as §1

antibody 21509 = test: Cross reactivity on anti-cortisol antibody microarray, antibody 21509; type: binding; conditions: from slopes of ([apparent cortisol] vs [cross reactant])
Text: as §7
(§8) In terms of the model β1 is interpreted as the amount that the “apparent” cortisol is increase per ng/ml increase of cortisol and similarly β2 is interpreted as the amount that the “apparent” cortisol is increased per ng/ml increase of cross-reactant. […]
(§9) The micro-array slides were assembled with a superstructure that creates individual wells that surround the sub array (Slide Incubation Chambers, Whatman). […] The intensities of fluorescence associated with each spot was quantified using a micro-array reader such as an Axon 4000B or 4200AL. […]
(§10) Subsequently, several cortisol antibodies were synthesized and relative cross reactivities were determined for the synthetic glucocorticoids obtained via the same described the Beckmann system (Tables 4 & 5). […]

antibody ECB = test: Cross reactivity on anti-cortisol antibody microarray, antibody ECB; type: binding; conditions: from slopes of ([apparent cortisol] vs [cross reactant])
Text: as §7, §8, §9, §10

Compound | Range of steroid concentration in synthetic positive patient samples [5] [ng/mL] | Access Cortisol Value [1] | Percent cross reactivity, Access [1] [%] | % Reactivity (Method 2) [1] [%] | % Reactivity (Method 1) [1] [%] | Percent cross reactivity, antibody 7 [2] [%] | % cross reactivity, antibody 7 [2] [%] | Percent cross reactivity, antibody 9 [3] [%] | % cross reactivity, antibody 9 [3] [%] | Percent cross reactivity, antibody 10 [4] | % cross reactivity, antibody 10 [4] [%] | Percent cross reactivity, antibody 13 (antibody 13) [%] | % cross reactivity, antibody 13 (antibody 13) [%] | Percent cross reactivity, antibody 17 (antibody 17) [%] | % cross reactivity, antibody 17 (antibody 17) [%] | % cross reactivity, antibody 21509 (antibody 21509) [%] | % cross reactivity, antibody ECB (antibody ECB) [%]
C[C@H]1C[C@@H]2[C@H]([C@@H](O)C[C@@]3(C)[C@H]2CC[C@]3(O)C(=O)CO)[C@@]2(C)C=CC(=O)C=C12 [SYN-1, 6-a-methyl prednisolone] | 1.7 to 130 | 34.4 | 2 | 1.4 | 1.72 | 9 | 7 | 2 | 2 | high | 109 | 10 | 6 | 3 | 1 | – | –
C[C@]12C=CC(=O)C=C1CC[C@H]1[C@@H]3C[C@@H](O)[C@](O)(C(=O)CO)[C@@]3(C)C[C@H](O)[C@@]12F [SYN-4, Triamcinolone] | – | 1.1 | 0 | – | 0.055 | 0 | – | 1 | – | 0% | – | 0 | – | 0 | – | – | –
C[C@]12CCC(=O)C=C1CC[C@@H]1[C@@H]2C(=O)C[C@@]2(C)[C@H]1CC[C@]2(O)C(=O)CO [SYN-6, Cortisone] | – | 94 | 5 | 4.5 | 4.7 | 1 | 1 | 13 | 15 | 0% | <1 | 1 | 1 | 11 | 13 | – | –
CC(=O)[C@@]1(O)CC[C@H]2[C@@H]3C[C@H](C)C4=CC(=O)C=C[C@]4(C)[C@@]3(F)[C@@H](O)C[C@@]21C [SYN-8, Fluorometholone] | – | 0.8 | 0 | – | 0.04 | 0 | – | 0 | – | 6% | – | 0 | – | 0 | – | – | –

Continued, in another order:

Range of steroid concentration in synthetic positive patient samples [5] [ng/mL] | Compound | Access Cortisol Value [1] | Percent cross reactivity, Access [1] [%] | % Reactivity (Method 2) [1] [%] | % Reactivity (Method 1) [1] [%] | Percent cross reactivity, antibody 7 [2] [%] | % cross reactivity, antibody 7 [2] [%] | Percent cross reactivity, antibody 9 [3] [%] | % cross reactivity, antibody 9 [3] [%] | Percent cross reactivity, antibody 10 [4] | % cross reactivity, antibody 10 [4] [%] | Percent cross reactivity, antibody 13 (antibody 13) [%] | % cross reactivity, antibody 13 (antibody 13) [%] | Percent cross reactivity, antibody 17 (antibody 17) [%] | % cross reactivity, antibody 17 (antibody 17) [%] | % cross reactivity, antibody 21509 (antibody 21509) [%] | % cross reactivity, antibody ECB (antibody ECB) [%]
1.9 to 72 | C[C@]12C=CC(=O)C=C1CC[C@@H]1[C@@H]2C(=O)C[C@@]2(C)[C@H]1CC[C@]2(O)C(=O)CO [SYN-2, Prednisone] | 50.8 | 3 | 2.2 | 2.54 | 1 | <1 | 21 | 26 | 0% | 1 | 1 | – | 20 | – | <1 | 1
0.3 to 2.3 | CC1(C)O[C@@H]2C[C@H]3[C@@H]4CCC5=CC(=O)C=C[C@]5(C)[C@@]4(F)[C@@H](O)C[C@]3(C)[C@]2(C(=O)CO)O1 [SYN-3, Triamcinolone acetonide] | – | – | – | – | – | – | – | – | – | – | – | – | – | – | – | –
0.6 to 640 | C[C@]12C=CC(=O)C=C1CC[C@@H]1[C@@H]2[C@@H](O)C[C@@]2(C)[C@H]1CC[C@]2(O)C(=O)CO [SYN-7, Prednisolone] | 420.7 | 21 | 20.8 | 21.035 | 5 | 5 | 15 | 37 | 68% | 133 | 4 | 5 | 14 | 35 | – | –
1.0 to 14.0 | C[C@@H]1C[C@H]2[C@@H]3CCC4=CC(=O)C=C[C@]4(C)[C@@]3(F)[C@@H](O)C[C@]2(C)[C@@]1(O)C(=O)CO [SYN-10, Dexamethasone] | – | – | – | – | – | – | – | – | – | – | – | – | – | – | – | –
